Experimental data published in the Kinase Knowledgebase extract (Sharma et al. 2016).

Biological target: ROCK2 (human) (UniProt O75116)
Assay: Inhibition of ROCK2 Kinase Activity

ROCK2 (human), sequence (O75116 whole entry, looked up): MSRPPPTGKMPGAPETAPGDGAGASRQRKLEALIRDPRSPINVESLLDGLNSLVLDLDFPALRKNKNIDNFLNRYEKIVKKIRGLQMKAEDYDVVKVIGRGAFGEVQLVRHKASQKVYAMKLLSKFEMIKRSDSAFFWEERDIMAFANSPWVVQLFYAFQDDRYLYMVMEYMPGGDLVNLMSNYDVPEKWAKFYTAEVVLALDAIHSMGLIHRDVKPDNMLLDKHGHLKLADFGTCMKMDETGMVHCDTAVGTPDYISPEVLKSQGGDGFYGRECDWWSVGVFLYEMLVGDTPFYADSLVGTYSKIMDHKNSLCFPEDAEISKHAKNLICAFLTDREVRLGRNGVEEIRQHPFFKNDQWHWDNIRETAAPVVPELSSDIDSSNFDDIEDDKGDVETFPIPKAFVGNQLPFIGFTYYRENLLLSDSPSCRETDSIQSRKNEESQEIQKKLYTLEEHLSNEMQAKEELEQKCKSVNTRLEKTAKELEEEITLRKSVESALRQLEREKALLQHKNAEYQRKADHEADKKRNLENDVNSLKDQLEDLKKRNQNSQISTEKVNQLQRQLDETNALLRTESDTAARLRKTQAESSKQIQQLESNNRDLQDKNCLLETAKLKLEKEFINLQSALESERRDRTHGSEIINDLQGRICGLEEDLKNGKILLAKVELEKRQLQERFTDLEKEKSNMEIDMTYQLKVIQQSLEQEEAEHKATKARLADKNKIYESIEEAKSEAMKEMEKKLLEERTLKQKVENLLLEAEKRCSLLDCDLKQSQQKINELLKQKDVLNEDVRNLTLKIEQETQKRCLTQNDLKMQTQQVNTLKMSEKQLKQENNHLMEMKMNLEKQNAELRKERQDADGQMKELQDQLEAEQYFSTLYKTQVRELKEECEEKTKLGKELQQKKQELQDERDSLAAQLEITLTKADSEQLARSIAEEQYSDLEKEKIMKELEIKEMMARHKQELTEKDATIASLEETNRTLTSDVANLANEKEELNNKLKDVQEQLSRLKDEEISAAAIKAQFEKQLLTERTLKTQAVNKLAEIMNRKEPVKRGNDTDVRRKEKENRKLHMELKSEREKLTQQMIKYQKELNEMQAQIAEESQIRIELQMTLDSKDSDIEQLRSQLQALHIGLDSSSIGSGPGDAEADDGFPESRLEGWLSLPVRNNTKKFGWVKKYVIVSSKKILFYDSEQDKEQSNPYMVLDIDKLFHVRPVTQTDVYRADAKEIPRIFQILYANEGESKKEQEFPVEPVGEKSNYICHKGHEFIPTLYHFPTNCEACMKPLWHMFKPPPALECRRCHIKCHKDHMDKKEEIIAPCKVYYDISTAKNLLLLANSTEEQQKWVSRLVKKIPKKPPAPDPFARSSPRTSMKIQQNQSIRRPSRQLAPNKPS

| Structure (SMILES) | IC50 [nM] |
| --- | --- |
| NC(CNC(=O)c1cccc(Br)c1)c1ccc(C(=O)Nc2ccncc2)cc1 (stereo unspecified) | 500 to 5000 |
| Cc1cccc(CC(=O)NCC(N)c2ccc(C(=O)Nc3ccncc3)cc2)c1 (stereo unspecified) | 50 to 500 |
| NC(CC(=O)NCc1cccc([N+](=O)[O-])c1)c1ccc(C(=O)Nc2ccncc2)cc1 (stereo unspecified) | 50 to 500 |
| CC[C@@H](NC(=O)CC(N)c1ccc(C(=O)Nc2ccncc2)cc1)c1ccc(C)cc1 (stereo partly specified) | 50 to 500 |
| NC(CNC(=O)C1CCCO1)c1ccc(C(=O)Nc2ccncc2)cc1 (stereo unspecified) | 500 to 5000 |
| CN(CC(N)c1ccc(C(=O)Nc2ccncc2)cc1)C(=O)Cc1csc2ccccc12 (stereo unspecified) | 500 to 5000 |
| Cc1ccc(CC(=O)NCC(N)c2ccc(C(=O)Nc3ccncc3)cc2)cc1 (stereo unspecified) | 50 to 500 |
| NC(CNC(=O)c1cccs1)c1ccc(C(=O)Nc2ccncc2)cc1 (stereo unspecified) | 50 to 500 |
| NC(CNC(=O)C1Cc2ccccc21)c1ccc(C(=O)Nc2ccncc2)cc1 (stereo unspecified) | 50 to 500 |
| CN(CC(N)c1ccc(C(=O)Nc2ccncc2)cc1)C(=O)Cc1ccc(F)cc1 (stereo unspecified) | 500 to 5000 |
| COc1ccc(C2(C(=O)N(C)CC(N)c3ccc(C(=O)Nc4ccncc4)cc3)CC2)cc1 (stereo unspecified) | 500 to 5000 |
| CC(C)(C(=O)N1CCCC1C(N)c1ccc(C(=O)Nc2ccncc2)cc1)c1ccsc1 (stereo unspecified) | 500 to 5000 |
| CC(=O)Nc1ccc(C(=O)NCC(N)c2ccc(C(=O)Nc3ccncc3)cc2)cc1 (stereo unspecified) | 500 to 5000 |
| NC(c1ccc(C(=O)Nc2ccncc2)cc1)C1CCCN1C(=O)Cc1ccc(F)cc1 (stereo unspecified) | 500 to 5000 |
| CC(C)(C(=O)NCC(N)c1ccc(C(=O)Nc2ccncc2)cc1)c1ccc(F)cc1 (stereo unspecified) | 50 to 500 |
| NC(c1ccc(C(=O)Nc2ccncc2)cc1)C1CCCN1C(=O)Cc1ccc(F)c(Cl)c1 (stereo unspecified) | 50 to 500 |
| NC(CC(=O)NCCc1ccccc1)c1ccc(C(=O)Nc2ccncc2)cc1 (stereo unspecified) | 50 to 500 |
| CCNC(=O)CC(N)c1ccc(C(=O)Nc2ccncc2)cc1 (stereo unspecified) | 50 to 500 |
| NC(CNC(=O)c1ccc2ccccc2c1)c1ccc(C(=O)Nc2ccncc2)cc1 (stereo unspecified) | 50 to 500 |
| CCN(CC)c1ccc(C(=O)NCC(N)c2ccc(C(=O)Nc3ccncc3)cc2)cc1 (stereo unspecified) | 500 to 5000 |
| NC(c1ccc(C(=O)Nc2ccncc2)cc1)C1CCCN1C(=O)C(c1ccccc1)C1CCCCC1 (stereo unspecified) | 500 to 5000 |

| Structure (SMILES) | IC50 [nM] |
| --- | --- |
| NC(CNC(=O)c1cccc(S(=O)(=O)Nc2ccccc2)c1)c1ccc(C(=O)Nc2ccncc2)cc1 (stereo unspecified) | 500 to 5000 |
| CC(C)(C)ON=Cc1ccc(C(=O)NCC(N)c2ccc(C(=O)Nc3ccncc3)cc2)cc1 (stereo unspecified) | 500 to 5000 |
| N#Cc1cccc(C(=O)NCC(N)c2ccc(C(=O)Nc3ccncc3)cc2)c1 (stereo unspecified) | 500 to 5000 |
| CS(=O)(=O)NCCNC(=O)CC(N)c1ccc(C(=O)Nc2ccncc2)cc1 (stereo unspecified) | 50 to 500 |
| NC(c1ccc(C(=O)Nc2ccncc2)cc1)C1CCCN1C(=O)Cc1csc2ccccc12 (stereo unspecified) | 50 to 500 |
| NC(c1ccc(C(=O)Nc2ccncc2)cc1)C1CCCN1C(=O)C1CCCc2ccccc21 (stereo unspecified) | 500 to 5000 |
| Cc1ccccc1CC(=O)NCC(N)c1ccc(C(=O)Nc2ccncc2)cc1 (stereo unspecified) | 50 to 500 |
| CN(CC(N)c1ccc(C(=O)Nc2ccncc2)cc1)C(=O)Cc1c[nH]c2ccccc12 (stereo unspecified) | 500 to 5000 |
| CCOc1ccc(CCNC(=O)CC(N)c2ccc(C(=O)Nc3ccncc3)cc2)cc1 (stereo unspecified) | 50 to 500 |
| CN(CC(N)c1ccc(C(=O)Nc2ccncc2)cc1)C(=O)C1Cc2ccccc21 (stereo unspecified) | 50 to 500 |
| NC(CC(=O)NCc1cc(C(F)(F)F)cc(C(F)(F)F)c1)c1ccc(C(=O)Nc2ccncc2)cc1 (stereo unspecified) | 50 to 500 |
| N[C@@H](CC(=O)N[C@@H]1CCCc2ccccc21)c1ccc(C(=O)Nc2ccncc2)cc1 | 50 to 500 |
| NC(CC(=O)NNC(=O)c1ccco1)c1ccc(C(=O)Nc2ccncc2)cc1 (stereo unspecified) | 50 to 500 |
| COc1cc(CCNC(=O)CC(N)c2ccc(C(=O)Nc3ccncc3)cc2)cc(OC)c1 (stereo unspecified) | 50 to 500 |
| CN(CC(N)c1ccc(C(=O)Nc2ccncc2)cc1)C(=O)C1(c2ccc(F)c(F)c2)CC1 (stereo unspecified) | 500 to 5000 |
| COc1cc(OC)cc(C(=O)NCC(N)c2ccc(C(=O)Nc3ccncc3)cc2)c1 (stereo unspecified) | 500 to 5000 |
| N#CCC(=O)NCC(N)c1ccc(C(=O)Nc2ccncc2)cc1 (stereo unspecified) | 50 to 500 |
| Cc1ccc(C)c(CNC(=O)CC(N)c2ccc(C(=O)Nc3ccncc3)cc2)c1 (stereo unspecified) | 50 to 500 |
| NC(CNC(=O)C1CCCCC1)c1ccc(C(=O)Nc2ccncc2)cc1 (stereo unspecified) | 500 to 5000 |
| CN(CC(N)c1ccc(C(=O)Nc2ccncc2)cc1)C(=O)C(C)(C)c1ccc(F)c(Cl)c1 (stereo unspecified) | 500 to 5000 |
| NC(CNC(=O)C1(c2ccc(F)c(F)c2)CCC1)c1ccc(C(=O)Nc2ccncc2)cc1 (stereo unspecified) | 50 to 500 |

| Structure (SMILES) | IC50 [nM] |
| --- | --- |
| NC(CNC(=O)c1ccc2ccccc2n1)c1ccc(C(=O)Nc2ccncc2)cc1 (stereo unspecified) | 50 to 500 |
| NC(CNC(=O)NC1CCCCC1)c1ccc(C(=O)Nc2ccncc2)cc1 (stereo unspecified) | 500 to 5000 |
| NC(c1ccc(C(=O)Nc2ccncc2)cc1)C1CCCN1C(=O)C1CCSc2ccc(F)cc21 (stereo unspecified) | 500 to 5000 |
| CN(CC(N)c1ccc(C(=O)Nc2ccncc2)cc1)C(=O)C1(c2ccc(Cl)cc2F)CC1 (stereo unspecified) | 500 to 5000 |
| CS(=O)(=O)c1ccc(CNC(=O)CC(N)c2ccc(C(=O)Nc3ccncc3)cc2)cc1 (stereo unspecified) | 50 to 500 |
| CCOc1ccccc1CNC(=O)CC(N)c1ccc(C(=O)Nc2ccncc2)cc1 (stereo unspecified) | 50 to 500 |
| CN(CC(N)c1ccc(C(=O)Nc2ccncc2)cc1)C(=O)C1CCOc2ccc(F)cc21 (stereo unspecified) | 500 to 5000 |
| CC(C)(C(=O)NCC(N)c1ccc(C(=O)Nc2ccncc2)cc1)c1ccsc1 (stereo unspecified) | 50 to 500 |
| COc1ccc(CNC(=O)CC(N)c2ccc(C(=O)Nc3ccncc3)cc2)cc1OC (stereo unspecified) | 50 to 500 |
| COc1cc(CC(=O)N2CCCC2C(N)c2ccc(C(=O)Nc3ccncc3)cc2)cc(OC)c1OC (stereo unspecified) | 500 to 5000 |
| COC(=O)C(C)NC(=O)CC(N)c1ccc(C(=O)Nc2ccncc2)cc1 (stereo unspecified) | 50 to 500 |
| NC(c1ccc(C(=O)Nc2ccncc2)cc1)C1CCCN1C(=O)C1CC(=O)c2ccccc21 (stereo unspecified) | 500 to 5000 |
| NC(CC(=O)NCc1ccc([N+](=O)[O-])cc1)c1ccc(C(=O)Nc2ccncc2)cc1 (stereo unspecified) | 50 to 500 |
| CC(C)(C)NC(=O)NCC(N)c1ccc(C(=O)Nc2ccncc2)cc1 (stereo unspecified) | 500 to 5000 |
| NC(CC(=O)NCc1ccccc1OC(F)(F)F)c1ccc(C(=O)Nc2ccncc2)cc1 (stereo unspecified) | 50 to 500 |
| NC(CNC(=O)C1(c2ccsc2)CC1)c1ccc(C(=O)Nc2ccncc2)cc1 (stereo unspecified) | 50 to 500 |
| CC(C)(C(=O)NCC(N)c1ccc(C(=O)Nc2ccncc2)cc1)c1ccc(Cl)cc1F (stereo unspecified) | 50 to 500 |
| NC(CC(=O)NCCc1c[nH]c2ccccc12)c1ccc(C(=O)Nc2ccncc2)cc1 (stereo unspecified) | 50 to 500 |
| CN(CC(N)c1ccc(C(=O)Nc2ccncc2)cc1)C(=O)C1(c2ccc(Cl)c(Cl)c2)CC1 (stereo unspecified) | 500 to 5000 |
| NC(CNC(=O)c1c[nH]cn1)c1ccc(C(=O)Nc2ccncc2)cc1 (stereo unspecified) | 500 to 5000 |
| NC(CC(=O)Nc1cc(-c2ccco2)[nH]n1)c1ccc(C(=O)Nc2ccncc2)cc1 (stereo unspecified) | 50 to 500 |

| Structure (SMILES) | IC50 [nM] |
| --- | --- |
| COc1cccc(NC(=O)NCC(N)c2ccc(C(=O)Nc3ccncc3)cc2)c1 (stereo unspecified) | 50 to 500 |
| CN(CC(N)c1ccc(C(=O)Nc2ccncc2)cc1)C(=O)Cc1c(F)cccc1Cl (stereo unspecified) | 500 to 5000 |
| NC(c1ccc(C(=O)Nc2ccncc2)cc1)C1CCCN1C(=O)Cc1ccc(Cl)cc1F (stereo unspecified) | 500 to 5000 |
| NC(CNC(=O)Nc1ccc(-c2ccccc2)cc1)c1ccc(C(=O)Nc2ccncc2)cc1 (stereo unspecified) | 500 to 5000 |
| COCCC(=O)NCC(N)c1ccc(C(=O)Nc2ccncc2)cc1 (stereo unspecified) | 500 to 5000 |
| NC(c1ccc(C(=O)Nc2ccncc2)cc1)C1CCCN1C(=O)C1(c2ccc(F)cc2)CCCC1 (stereo unspecified) | 500 to 5000 |
| COc1ccc(C2(C(=O)N3CCCC3C(N)c3ccc(C(=O)Nc4ccncc4)cc3)CCCC2)cc1 (stereo unspecified) | 500 to 5000 |
| NC(c1ccc(C(=O)Nc2ccncc2)cc1)C1CCCN1C(=O)Cc1ccc(O)c([N+](=O)[O-])c1 (stereo unspecified) | 500 to 5000 |
| NC(CNC(=O)c1ccc(-c2ccccc2)cc1)c1ccc(C(=O)Nc2ccncc2)cc1 (stereo unspecified) | 500 to 5000 |
| NC(CNC(=O)c1ccccc1)c1ccc(C(=O)Nc2ccncc2)cc1 (stereo unspecified) | 50 to 500 |
| NC(c1ccc(C(=O)Nc2ccncc2)cc1)C1CCCN1C(=O)Cc1ccc(F)cc1Cl (stereo unspecified) | 500 to 5000 |
| NC(CC(=O)NCc1cccc(Cl)c1Cl)c1ccc(C(=O)Nc2ccncc2)cc1 (stereo unspecified) | 50 to 500 |
| NC(CC(=O)NCCc1ccc(Cl)c(Cl)c1)c1ccc(C(=O)Nc2ccncc2)cc1 (stereo unspecified) | 50 to 500 |
| NC(CC(=O)NCc1cc(Cl)ccc1Cl)c1ccc(C(=O)Nc2ccncc2)cc1 (stereo unspecified) | 50 to 500 |
| CN(CC(N)c1ccc(C(=O)Nc2ccncc2)cc1)C(=O)C1(c2ccc(F)cc2)CCCC1 (stereo unspecified) | 500 to 5000 |
| CC(C)(C(=S)NCC(N)c1ccc(C(=O)Nc2ccncc2)cc1)c1ccc(F)cc1 (stereo unspecified) | 50 to 500 |
| NC(c1ccc(C(=O)Nc2ccncc2)cc1)C1CCCN1C(=O)C1CCc2ccccc21 (stereo unspecified) | 500 to 5000 |
| NC(CC(=O)Nc1ccc2[nH]ccc2c1)c1ccc(C(=O)Nc2ccncc2)cc1 (stereo unspecified) | 50 to 500 |
